Laboratory results taken from US12534469B2 (CHILDREN'S HOSPITAL MEDICAL CENTER, priority 2020, dated 2026).
Values belong to the compound of their own block, whether it stands above or below them.

Key:
Type in all cases: biochemical
FLT3 = biological target: T1, FLT3 (Homo sapiens, UniProt P36888); assay: RBC HotSpot Kinase Assay, FLT3
T1 construct: purchased Reaction Biology (RBC HotSpot Kinase Assay)
T1 sequence (P36888 564-958 limits assumed): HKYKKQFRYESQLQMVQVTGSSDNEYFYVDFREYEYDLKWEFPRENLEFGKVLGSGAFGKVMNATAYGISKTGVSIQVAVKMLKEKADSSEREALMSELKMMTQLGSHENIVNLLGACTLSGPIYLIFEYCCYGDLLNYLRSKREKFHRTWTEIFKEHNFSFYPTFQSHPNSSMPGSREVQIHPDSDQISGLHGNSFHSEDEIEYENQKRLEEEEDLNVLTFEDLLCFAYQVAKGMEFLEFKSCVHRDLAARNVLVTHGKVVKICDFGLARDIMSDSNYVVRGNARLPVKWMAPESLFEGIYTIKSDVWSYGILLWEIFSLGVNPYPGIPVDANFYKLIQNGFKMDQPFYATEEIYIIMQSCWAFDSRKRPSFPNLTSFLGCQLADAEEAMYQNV
Text: (§1) This assay uses the isolated kinase enzyme. This assay is very useful for determining competition of the inhibitor for ATP and/or substrates and for measuring the kinetics of enzyme inhibition. […] Unlike kinase binding assays that measure competition for ATP, the HotSpot Kinase Assay is a functional assay that measures catalytic activity; as such it measures relative functional potency regardless of the mechanism of enzyme inhibition. This assay uses the form of the various enzymes that are easiest to express, which may not necessarily be the form of the enzyme that exist in the cell. (Sometimes the carboxy terminus has been truncated to aid in expression, or, if it is a receptor kinase, the enzyme itself is isolated from the other parts of the receptor that are involved in regulating kinase activity.)
(§2) The reagent used was as follows: Base Reaction buffer; 20 mM Hepes (pH 7.5), 10 mM MgCl2, 1 mM EGTA, 0.01% Brij35, 0.02 mg/ml BSA, 0.1 mM Na3VO4, 2 mM DTT, 1% DMSO. Required cofactors were added individually to each kinase reaction.
(§3) The reaction procedure was as follows: • 1) Substrates were prepared in freshly prepared Reaction Buffer. • 2) Any required cofactors were delivered to the substrate solution above. • 3) Kinase was delivered into the substrate solution and gently mixed. • 4) Compounds were delivered in 100% DMSO into the kinase reaction mixture by Acoustic technology (Echo550; nanoliter range), followed by incubation for 20 min at room temp. • 5) ^33P-ATP was delivered into the reaction mixture to initiate the reaction. • 6) The mixture was incubated for 2 hours at room temperature. • 7) Kinase activity was detected by P81 filter-binding method.

IRAK4 = biological target: T2, IRAK4 (Homo sapiens, UniProt Q9NWZ3); assay: RBC HotSpot Kinase Assay, IRAK4; design: purchased Reaction Biology (RBC HotSpot Kinase Assay)
T2 sequence (Q9NWZ3 1-460): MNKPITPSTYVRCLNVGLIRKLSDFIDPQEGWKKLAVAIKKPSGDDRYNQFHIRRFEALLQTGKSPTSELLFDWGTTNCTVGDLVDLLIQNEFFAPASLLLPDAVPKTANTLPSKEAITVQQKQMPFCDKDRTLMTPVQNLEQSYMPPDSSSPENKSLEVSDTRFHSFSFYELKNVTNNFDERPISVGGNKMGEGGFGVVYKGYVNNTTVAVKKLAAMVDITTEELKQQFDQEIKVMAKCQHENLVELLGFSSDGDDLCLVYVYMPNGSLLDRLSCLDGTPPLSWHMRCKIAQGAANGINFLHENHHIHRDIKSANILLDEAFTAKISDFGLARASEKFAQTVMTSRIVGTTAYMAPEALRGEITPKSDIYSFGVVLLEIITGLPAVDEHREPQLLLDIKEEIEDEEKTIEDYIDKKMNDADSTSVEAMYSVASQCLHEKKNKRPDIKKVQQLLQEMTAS
Text: as §1, §2, §3

IRAK1 = biological target: T3, IRAK1 (Homo sapiens, UniProt P51617); assay: RBC HotSpot Kinase Assay, IRAK1
T3 construct: purchased Reaction Biology (RBC HotSpot Kinase Assay)
Text: as §1, §2, §3

T3 sequence (P51617 whole entry): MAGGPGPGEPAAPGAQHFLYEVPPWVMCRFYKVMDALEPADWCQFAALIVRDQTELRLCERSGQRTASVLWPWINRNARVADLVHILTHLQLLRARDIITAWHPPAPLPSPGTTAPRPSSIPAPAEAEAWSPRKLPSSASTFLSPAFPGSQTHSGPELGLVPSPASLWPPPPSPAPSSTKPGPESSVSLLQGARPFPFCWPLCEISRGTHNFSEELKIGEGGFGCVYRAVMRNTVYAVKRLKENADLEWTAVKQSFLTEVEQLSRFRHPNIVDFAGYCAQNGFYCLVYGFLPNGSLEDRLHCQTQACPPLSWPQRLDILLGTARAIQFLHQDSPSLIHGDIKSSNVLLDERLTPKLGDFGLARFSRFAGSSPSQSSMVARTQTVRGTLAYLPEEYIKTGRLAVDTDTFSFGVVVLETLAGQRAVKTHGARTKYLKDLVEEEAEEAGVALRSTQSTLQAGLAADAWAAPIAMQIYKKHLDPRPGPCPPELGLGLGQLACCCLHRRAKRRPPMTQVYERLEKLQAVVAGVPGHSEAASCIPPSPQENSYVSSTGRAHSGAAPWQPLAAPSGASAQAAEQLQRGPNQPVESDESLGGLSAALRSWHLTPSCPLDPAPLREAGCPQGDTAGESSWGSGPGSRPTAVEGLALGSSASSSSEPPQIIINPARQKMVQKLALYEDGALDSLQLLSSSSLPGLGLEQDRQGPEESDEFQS

Compound: c1cc(NC2CCC3(CNC3)C2)nc(-c2cnc3ccc(-c4cnn(C5CCOCC5)c4)nn23)c1 (stereo not drawn) [Compound 48, N-(6-(6-(1-(tetrahydro-2H-pyran-4-yl)-1H-pyrazol-4-yl)imidazo[1,2-b]pyridazin-3-yl)pyridin-2-yl)-2-azaspiro[3.4]octan-6-amine]
IC50 (FLT3): 12 nM | IC50 (IRAK4): 4080 nM | IC50 (IRAK1): > 10000 nM

Compound: Cc1oncc1-c1ccc2ncc(-c3cccc(NC4CC5(CNC5)C4)n3)n2n1 [Compound 36, N-(6-(6-(5-methylisoxazol-4-yl)imidazo[1,2-b]pyridazin-3-yl)pyridin-2-yl)-2-azaspiro[3.3]heptan-6-amine]
IC50 (FLT3): 5 nM | IC50 (IRAK4): 2700 nM | IC50 (IRAK1): 3780 nM

Compound: c1cc(NC2CCNC2)nc(-c2cnc3ccc(-c4cn[nH]c4)nn23)c1 (stereo not drawn) [Compound 26, 6-(6-(1H-pyrazol-4-yl)imidazo[1,2-b]pyridazin-3-yl)-N-(pyrrolidin-3-yl)pyridin-2-amine]
IC50 (FLT3): 0.9 nM | IC50 (IRAK4): 20 nM | IC50 (IRAK1): 114 nM

Compound: c1cc(NC2CCNC2)nc(-c2cnc3ccc(-c4cnn(C5CCOCC5)c4)nn23)c1 (stereo not drawn) [Compound 29, N-(pyrrolidin-3-yl)-6-(6-(1-(tetrahydro-2H-pyran-4-yl)-1H-pyrazol-4-yl)imidazo[1,2-b]pyridazin-3-yl)pyridin-2-amine]
IC50 (FLT3): 4 nM | IC50 (IRAK4): 2460 nM | IC50 (IRAK1): 13000 nM

Compound: FC(F)n1cc(-c2ccc3ncc(-c4cccc(N[C@@H]5CCCNC5)n4)n3n2)cn1 [Compound 16]
IC50 (FLT3): < 0.5 nM | IC50 (IRAK4): 157 nM | IC50 (IRAK1): 3060 nM

Compound: c1cc(NC2CCC3(CNC3)C2)nc(-c2cnc3ccc(-c4cn[nH]c4)nn23)c1 (stereo not drawn) [Compound 45, N-(6-(6-(1H-pyrazol-4-yl)imidazo[1,2-b]pyridazin-3-yl)pyridin-2-yl)-2-azaspiro[3.4]octan-6-amine]
IC50 (FLT3): < 0.5 nM | IC50 (IRAK4): 8 nM | IC50 (IRAK1): 37 nM

Compound: Cn1cc(-c2ccc3ncc(-c4cccc(NC5CCC6(CNC6)C5)n4)n3n2)cn1 (stereo not drawn) [Compound 49, N-(6-(6-(1-methyl-1H-pyrazol-4-yl)imidazo[1,2-b]pyridazin-3-yl)pyridin-2-yl)-2-azaspiro[3.4]octan-6-amine]
IC50 (FLT3): 2 nM | IC50 (IRAK4): 204 nM | IC50 (IRAK1): 1200 nM

Compound: CC(C)(O)Cn1cc(-c2ccc3ncc(-c4cccc(N[C@H]5CCNC[C@@H]5F)n4)n3n2)cn1 [Compound 8, 1-(4-(3-(6-(((3S,4S)-3-fluoropiperidin-4-yl)amino)pyridin-2-yl)imidazo[1,2-b]pyridazin-6-yl)-1 H-pyrazol-1-yl)-2-methylpropan-2-ol]
IC50 (FLT3): 8 nM | IC50 (IRAK4): 586 nM | IC50 (IRAK1): 704 nM

Compound: c1ccc(-n2cc(-c3ccc4ncc(-c5cccc(NC6CCNC6)n5)n4n3)cn2)cc1 (stereo not drawn) [Compound 28, 6-(6-(1-phenyl-1H-pyrazol-4-yl)imidazo[1,2-b]pyridazin-3-yl)-N-(pyrrolidin-3-yl)pyridin-2-amine]
IC50 (FLT3): 2 nM | IC50 (IRAK4): 2360 nM | IC50 (IRAK1): 6580 nM

Compound: Cn1cc(-c2ccc3ncc(-c4cccc(NC5CC6(CCNC6)C5)n4)n3n2)cn1 (stereo not drawn) [Compound 42, N-(6-(6-(1-methyl-1H-pyrazol-4-yl)imidazo[1,2-b]pyridazin-3-yl)pyridin-2-yl)-6-azaspiro[3.4]octan-2-amine]
IC50 (FLT3): 3 nM | IC50 (IRAK4): 113 nM | IC50 (IRAK1): 2220 nM

Compound: Cn1cc(-c2ccc3ncc(-c4cccc(N[C@H]5CNC[C@@H]5C(F)(F)F)n4)n3n2)cn1 [Compound 11, 6-(6-(1-methyl-1 H-pyrazol-4-yl)imidazo[1,2-b]pyridazin-3-yl)-N-((3R,4S)-4-(trifluoromethyl)pyrrolidin-3-yl)pyridin-2-amine]
IC50 (FLT3): < 0.5 nM | IC50 (IRAK4): 21 nM | IC50 (IRAK1): 860 nM

Compound: c1cc(NC2CC3(CCNC3)C2)nc(-c2cnc3ccc(-c4cn[nH]c4)nn23)c1 (stereo not drawn) [Compound 38, N-(6-(6-(1H-pyrazol-4-yl)imidazo[1,2-b]pyridazin-3-yl)pyridin-2-yl)-6-azaspiro[3.4]octan-2-amine]
IC50 (FLT3): < 0.5 nM | IC50 (IRAK4): 2 nM | IC50 (IRAK1): 23 nM

Compound: CC(C)n1cc(-c2ccc3ncc(-c4cccc(NC5CCNC5)n4)n3n2)cn1 (stereo not drawn) [Compound 27, 6-(6-(1-isopropyl-1H-pyrazol-4-yl)imidazo[1,2-b]pyridazin-3-yl)-N-(pyrrolidin-3-yl)pyridin-2-amine]
IC50 (FLT3): 5 nM | IC50 (IRAK4): 609 nM | IC50 (IRAK1): 1620 nM

Compound: Cn1cc(-c2ccc3ncc(-c4cccc(NC5CC6(CNC6)C5)n4)n3n2)cn1 [Compound 35, N-(6-(6-(1-methyl-1H-pyrazol-4-yl)imidazo[1,2-b]pyridazin-3-yl)pyridin-2-yl)-2-azaspiro[3.3]heptan-6-amine]
IC50 (FLT3): 3 nM | IC50 (IRAK4): 126 nM | IC50 (IRAK1): 2820 nM

Compound: F[C@H]1CNCC[C@@H]1Nc1cccc(-c2cnc3ccc(-c4cnn(C5CC5)c4)nn23)n1 [Compound 7, 6-(6-(1-cyclopropyl-1 H-pyrazol-4-yl)imidazo[1,2-b]pyridazin-3-yl)-N-((3S,4S)-3-fluoropiperidin-4-yl)pyridin-2-amine]
IC50 (FLT3): 4 nM | IC50 (IRAK4): 52 nM | IC50 (IRAK1): 284 nM

The next lines start with the values.

IC50 (FLT3): 4 nM | IC50 (IRAK4): 148 nM | IC50 (IRAK1): 5860 nM
Compound: CO[C@H]1CNC[C@@H]1Nc1cccc(-c2cnc3ccc(C4CC4)nn23)n1 [Compound 74, 6-(6-cyclopropylimidazo[1,2-b]pyridazin-3-yl)-N-((3S,4S)-4-methoxypyrrolidin-3-yl)pyridin-2-amine]

IC50 (FLT3): 4 nM | IC50 (IRAK4): 24 nM | IC50 (IRAK1): 1180 nM
Compound: F[C@H]1CNC[C@@H]1Nc1cccc(-c2cnc3ccc(N4CCOCC4)nn23)n1 [Compound 95, N-((3S,4S)-4-fluoropyrrolidin-3-yl)-6-(6-morpholinoimidazo[1,2-b]pyridazin-3-yl)pyridin-2-amine]

IC50 (FLT3): 3 nM | IC50 (IRAK4): 45 nM | IC50 (IRAK1): 3970 nM
Compound: F[C@H]1CNC[C@@H]1Nc1cccc(-c2cnc3ccc(C4CC4)nn23)n1 [Compound 69, 6-(6-cyclopropylimidazo[1,2-b]pyridazin-3-yl)-N-((3S,4S)-4-fluoropyrrolidin-3-yl)pyridin-2-amine]

IC50 (FLT3): 1 nM | IC50 (IRAK4): 36 nM | IC50 (IRAK1): 3590 nM
Compound: FC(F)[C@H]1CNC[C@@H]1Nc1cccc(-c2cnc3ccc(C4CC4)nn23)n1 [Compound 72, 6-(6-cyclopropylimidazo[1,2-b]pyridazin-3-yl)-N-((3R,4S)-4-(difluoromethyl)pyrrolidin-3-yl)pyridin-2-amine]

IC50 (FLT3): 2 nM | IC50 (IRAK4): 4 nM | IC50 (IRAK1): 274 nM
Compound: CC1(C)Cc2c(-c3ccc4ncc(-c5cccc(NC6CNCC6(F)F)n5)n4n3)cnn2C1 (stereo not drawn) [Compound 60, N-(4,4-difluoropyrrolidin-3-yl)-6-(6-(5,5-dimethyl-5,6-dihydro-4H-pyrrolo[1,2-b]pyrazol-3-yl)imidazo[1,2-b]pyridazin-3-yl)pyridin-2-amine]

IC50 (FLT3): 0.6 nM | IC50 (IRAK4): 345 nM | IC50 (IRAK1): 3140 nM
Compound: c1cc(N[C@@H]2CCCNC2)nc(-c2cnc3ccc(C4CC4)nn23)c1 [Compound 76, (R)-6-(6-cyclopropylimidazo[1,2-b]pyridazin-3-yl)-N-(piperidin-3-yl)pyridin-2-amine]

IC50 (FLT3): < 0.5 nM | IC50 (IRAK4): 8 nM | IC50 (IRAK1): 1690 nM
Compound: FC1(F)CNCC1Nc1cccc(-c2cnc3ccc(-c4cnn5ncccc45)nn23)n1 (stereo not drawn) [Compound 54, N-(4,4-difluoropyrrolidin-3-yl)-6-(6-(pyrazolo[1,5-b]pyridazin-3-yl)imidazo[1,2-b]pyridazin-3-yl)pyridin-2-amine]

IC50 (FLT3): 2 nM | IC50 (IRAK4): 37 nM | IC50 (IRAK1): 937 nM
Compound: COc1cc2ncc(-c3cccc(N[C@H]4CNC[C@@H](F)C4)n3)n2nc1C1(C(F)(F)F)CC1 [Compound 86, N-((3R,5S)-5-fluoropiperidin-3-yl)-6-(7-methoxy-6-(1-(trifluoromethyl)cyclopropyl)imidazo[1,2-b]pyridazin-3-yl)pyridin-2-amine]
